Experimental data reported in patent publication US11142515B2, “Pyrazolyl-ureas as kinase inhibitors” (RESPIVERT LIMITED, priority 2014, dated 2021).

Tests used:
CXCL1 (KC) in BALF = assay: Cigarette smoke model: CXCL1 (KC) in BALF; format: in vivo, A/J mice; details: mice; for CXCL1 in BALF / CXCL1 in BALF, % inhibition: tobacco smoke
Procedure: (§1) A/J mice (males, 5 weeks old) were exposed to cigarette smoke (4% cigarette smoke, diluted with air) for 30 min/day for 11 days using a Tobacco Smoke Inhalation Experiment System for small animals (Model SIS-CS; Sibata Scientific Technology, Tokyo, Japan). Test substances were administered intra-nasally (35 μL of solution in 10% DMSO/PBS) once daily for 3 days after the final cigarette smoke exposure. At 12 h after the last […], each of the animals was anesthetized, the trachea cannulated and bronchoalveolar lavage fluid (BALF) was collected. The numbers of alveolar macrophages and neutrophils were determined by FACS analysis (EPICS® ALTRA II, Beckman Coulter, Inc., Fullerton, Calif., USA) using anti-mouse MOMA2 antibody (macrophage) or anti-mouse 7/4 antibody (neutrophil). BALF was centrifuged and the supernatant was collected. The level of keratinocyte chemoattractant (KC; CXCL1) in BALF was quantitated using a Quantikine® mouse KC ELISA kit (R&D systems, Inc., Minneapolis, Minn., USA).

[1] = test system: sputum macrophages from COPD patients; assay: Cytokine production in LPS-treated sputum macrophages from COPD patients; format: cell-based, human
Procedure: Patients with COPD inhaled a nebulised solution of 3% (w/v) hypertonic saline using an ultrasonic nebuliser (Devilbiss, Carthage, Mo.) with tidal breathing for 5 min. This procedure was repeated a maximum of three times until enough sputum was obtained. The sputum samples were homogenized and mixed vigorously using a vortex mixer in 0.02% v/v dithiothreitol (DTT) solution. The samples were re-suspended in PBS (40 mL) followed by centrifugation at 1500 rpm at 4° C. for 10 min to obtain sputum cell pellets. The pellets were washed with PBS (40 mL). The sputum cells were then re-suspended in 4 mL macrophage serum-free medium (macrophage-SFM, Life technologies, containing 20 U/mL penicillin, 0.02 mg/mL streptomycin and 5 μg/mL amphotericin B) and seeded on high bound 96-well plate, followed by incubation for 1 h at 37° C. and at 5% CO2 to allow the macrophages to attach to the bottom of the plate. The cells on the plate were washed with fresh macrophage-SFM (200 μL/well) to remove neutrophils and other contaminated cells. The adherent cells (mainly sputum macrophages) on the plate were used for further analysis. Sputum inductions were conducted in Quintiles Drug Research Unit at Guys Hospital and ethics approval and written informed consent was obtained by Quintiles.
Where appropriate, 1 μL of a solution containing either the test compound or reference article at the stated concentrations (either 0.1 μg/mL, 0.01 μg/mL, or 0.001 μg/mL) or alternatively 1 μL of DMSO as the vehicle control was added to each well (200 μL in media) and the cells were incubated for 2 h. The cells were stimulated with LPS solution (50 μL, final concentration: 1 μg/mL) and incubated for 18 h at 37° C. and 5% CO2. The supernatant was then collected and kept at −80° C. Suitable luminex kits were used to measure the selected analytes. After thawing the supernatant, the magnetic antibody beads were multiplexed and incubated in a 96-well plate with standard, background solution or the appropriate volume of sample overnight with shaking at 4° C. After washing twice with 200 μL of wash buffer provided by the kit per well using a magnetic plate washer, the beads were incubated for 1 h at RT with the biotin conjugated antibody solution provided by the kit with shaking. Streptavidin solution was added for 30 min with shaking at RT. After washing with 200 μL wash buffer per well, the beads were resuspended in sheath fluid (150 μL) and analyzed immediately. The level of each analyte in the supernatant was calculated using Xcel Fit software with a 4 or 5-parameter equation using each standard curve. The inhibitions of each cytokine production were calculated at each concentration by comparison with vehicle control.

[2] = test system: neutrophil accumulation in BALF; assay: LPS-induced neutrophil accumulation in mice; format: in vivo, Balb/c mice; details: mice; for Neutrophil numbers in BALF / Neutrophil numbers in BALF, % inhibition: 0.2 mg/mL, LPS
Procedure: Non-fasted Balb/c mice were […] by the intra tracheal route with either vehicle, or the test substance at the indicated times (within the range 2-8 h) before stimulation of the inflammatory response by application of an LPS challenge. At T=0, mice were placed into an exposure chamber and exposed to LPS (7.0 mL, 0.5 mg/mL solution in PBS for 30 min). After a further 8 h the animals were anesthetized, their tracheas cannulated and BALF extracted by infusing and then withdrawing from their lungs 1.0 mL of PBS via the tracheal catheter. Total and differential white cell counts in the BALF samples were measured using a Neubaur haemocytometer. Cytospin smears of the BALF samples were prepared by centrifugation at 200 rpm for 5 min at RT and stained using a DiffQuik stain system (Dade Behring). Cells were counted using oil immersion microscopy. Data for neutrophil numbers in BAL are shown as mean±S.E.M. (standard error of the mean). The percentage inhibition of neutrophil accumulation was calculated for each treatment relative to vehicle treatment.

[3] = test system: alveolar macrophages and neutrophils in BALF; assay: Cigarette smoke model: macrophages and neutrophils in BALF; format: in vivo, A/J mice; details: mice; for Cell numbers in BALF, Macrophage / Cell numbers in BALF, Macrophage, % inhibition / Cell numbers in BALF, Neutrophil / Cell numbers in BALF, Neutrophil, % inhibition: tobacco smoke
Procedure: as §1, with “Test substances were administered intra-nasally (35 μL of solution in 10% DMSO/PBS) once daily for 3 days after the final cigarette smoke exposure.” left out

Cc1ccc(-n2nc(C(C)(C)C)cc2NC(=O)Nc2ccc(OCc3ccnc(Nc4cnccn4)c3)c3ccccc23)cc1 [Example 1, 1-(3-(tert-Butyl)-1-(p-tolyl)-1H-pyrazol-5-yl)-3-(4-((2-(pyrazin-2-ylamino)pyridin-4-yl)methoxy)naphthalen-1-yl)urea]
CXCL1 in BALF (CXCL1 (KC) in BALF; 0.07 μg/mouse): 14.47 pg/mL | CXCL1 in BALF, % inhibition (CXCL1 (KC) in BALF; 0.07 μg/mouse): 14.6% | CXCL1 in BALF (CXCL1 (KC) in BALF; 0.7 μg/mouse): 12.49 pg/mL | CXCL1 in BALF, % inhibition (CXCL1 (KC) in BALF; 0.7 μg/mouse): 34.9% | CXCL1 in BALF (CXCL1 (KC) in BALF; 7 μg/mouse): 9.03 pg/mL | CXCL1 in BALF, % inhibition (CXCL1 (KC) in BALF; 7 μg/mouse): 70.3% | tobacco smoke induced CXCL1 (KC) production in BALF (in words) (CXCL1 (KC) in BALF): inhibited | inhibition of pro-inflammatory cytokine production in sputum macrophage compared with fluticasone propionate [1]: higher efficacy | IC50 ([1]; Homo sapiens, Macrophage, IL-6, sputum macrophages from COPD patients): 0.028 µM | inhibition at 0.1 µg/mL ([1]; Homo sapiens, Macrophage, read-out: E-max (maximum inhibition), IL-6 production in LPS-treated sputum macrophages): 60% | Neutrophil numbers in BALF ([2]; pre-dose time 2 hr): 492000 mL⁻¹ | Neutrophil numbers in BALF, % inhibition ([2]; pre-dose time 2 hr): 67.8% | Neutrophil numbers in BALF ([2]; pre-dose time 8 hr): 759000 mL⁻¹ | Neutrophil numbers in BALF, % inhibition ([2]; pre-dose time 8 hr): 50.3% | LPS-induced neutrophil accumulation (in words) [2]: inhibition | duration of action (time course experiment) [2]: long duration of action | Cell numbers in BALF, Macrophage ([3]; 0.07 μg/mouse): 172700 mL⁻¹ | Cell numbers in BALF, Macrophage, % inhibition ([3]; 0.07 μg/mouse): 10.2% | Cell numbers in BALF, Neutrophil ([3]; 0.07 μg/mouse): 94200 mL⁻¹ | Cell numbers in BALF, Neutrophil, % inhibition ([3]; 0.07 μg/mouse): 13.7% | Cell numbers in BALF, Macrophage ([3]; 0.7 μg/mouse): 149200 mL⁻¹ | Cell numbers in BALF, Macrophage, % inhibition ([3]; 0.7 μg/mouse): 26.5% | Cell numbers in BALF, Neutrophil ([3]; 0.7 μg/mouse): 76600 mL⁻¹ | Cell numbers in BALF, Neutrophil, % inhibition ([3]; 0.7 μg/mouse): 33.7% | Cell numbers in BALF, Macrophage ([3]; 7 μg/mouse): 113400 mL⁻¹ | Cell numbers in BALF, Macrophage, % inhibition ([3]; 7 μg/mouse): 51.1% | Cell numbers in BALF, Neutrophil ([3]; 7 μg/mouse): 60400 mL⁻¹ | Cell numbers in BALF, Neutrophil, % inhibition ([3]; 7 μg/mouse): 52.0% | macrophage and neutrophil accumulation in BALF induced by cigarette smoke (in words) [3]: dose-dependent inhibition
